Experiment [1] can be described thus: General pharmacological screening: anti-inflammatory activity. Particulars: result in words.
In experiment [2] the test system is guinea pig ileal longitudinal smooth muscle. Put plainly: Calcium channel antagonist testing: inhibition of carbachol-induced, muscarinic receptor-mediated Ca2+-dependent contraction of smooth muscle. The following applies: for relative potency compared with Nifedipine: calcium antagonist in smooth muscle, Nifedipine = 1. It is filed as cell-based. The text has this:
The compounds of this invention of formulae I and II are suitably prepared, applying modified Hantzsch pyridine synthesis, by reacting the appropriately substituted heterocyclic alkyl acetoacetate or substituted heterocyclic mercapto alkyl acetoacetate with a substituted benzaldehyde derivative and methyl-β-aminocrotonate in isopropanol. The compounds of formula III are suitably prepared by reacting diketene or an alkyldiketene with an appropriately substituted heterocyclic ω-alkanol or substituted heterocyclic mercapto ω-alkanol in benzene. The related sulfoxy and sulfonyl derivatives of formula VI may be prepared by oxidizing the relative mercapto derivative with m-chloroperbenzoic acid in CH₂Cl₂ followed, if required, by further oxidation with potassium permanganate in acetic acid. All the products in this invention are characterized by their respective nmr, ir spectra and their elemental analysis. The relative purity has been determined by HPLC. Calcium antagonistic activity of the compounds was determined at the concentration required to produce 50% inhibition of the muscarinic receptor-mediated Ca²⁺-dependent contraction of guinea pig ileal longitudinal smooth muscle assay.
Calcium channel antagonist activity was determined as the concentration required to produce 50% inhibition of the muscarinic receptor-mediated Ca⁺²-dependent contraction of guinea pig ileal longitudinal smooth muscle assay (C. Triggle, V. Swamy and D. Triggle, Can. J. Physiol. Pharmacol., 1979, 57, 804). Male albino guinea pigs (body weight 300 - 450g) were sacrificed by decapitation. The intestine was removed above the ileocaecal junction. Longitudinal smooth muscle segments of 2cm length were mounted under a resting tension of 300 - 400 mg. The segments were maintained at 37°C in a 10mL jacketed organ bath containing oxygenated (100% O₂) physiological saline solution of the following composition (mM): NaCl: 137; CaCl₂: 2.6; KCl: 5.9; MgCl₂: 1.2; glucose: 11.9; buffered by Hepes-NaOH to pH 7.4. The muscles were equilibrated for 1h with a solution change every 15 min. Two successive control contractions were elicited at 15 min. intervals with 5x10⁻⁷M carbachol. The isometric contractions were recorded with a force displacement transducer (FT 03C) on a GRASS* physiograph. The means of the […] contractile responses was taken as the 100% value for the tonic (slow) component of the response. The muscle was washed with Hepes saline solution and was allowed to re-equilibrate. The calcium antagonist (test compound) was added ten min before the dose-response for carbachol was determined. The drug-induced inhibition of contraction was expressed as percent of control. The ID₅₀ values were graphically determined from the concentration-response curves, in triplicate.

Experiment [3] relates to heart muscle. Put plainly: Ionotropic effect and heart rate on heart muscle. The following applies: for heart contractile force / heart rate: at the concentrations which normally exhibit the Ca-blocking effect in smooth muscles; for positive ionotropic effect on the heart muscle: same concentration as smooth muscle relaxant (IC50 concentration; 3.25 x 10⁻⁹M for Compound 11). It is filed as cell-based.

Experiment [4] deals with angiotensin. In words: In-vitro angiotensin inhibitory activity. It is filed as biochemical. Particulars: for angiotensin inhibitory activity: general pharmacological screening, result in words.
Experiment [5] has as its system LTD₄. In words: General pharmacological screening: LTD4 antagonistic activity. Particulars: result in words.
A short description of experiment [6]: General pharmacological screening: anti-ulcer stressic activity. Particulars: result in words.
The test system of experiment [7] is SHR Rat. Put plainly: Blood pressure and heart rate in SHR Rat. The class given is in vivo. The following applies: 0.2mg/Kg.
Experiment [8] concerns heart muscle. The following applies: in the concentration of its smooth muscle calcium channel blocking effectiveness; cited from earlier work.
Setting [9] is: Cavia porcellus, read-out: IC₅₀ as a calcium antagonist in smooth muscle.
Where [10] appears, read: Cavia porcellus, exponent (x 10⁻⁹), carbachol 5x10⁻⁷M, tonic component, triplicate, read-out: calcium channel antagonist act., inhib. act. on contractile Response to CD ID₅₀.

Read-outs that look alike come from different tables or passages of the source.

As to `COC(=O)C1=C(C)NC(C)=C(C(=O)OCCCCCCn2nc(C)cc2C)C1c1cccc([N+](=O)[O-])c1` (centres unmarked), the anti-inflammatory activity entry in experiment [1] was “very strong”.
For the molecule `COC(=O)C1=C(C)NC(C)=C(C(=O)OCCCCCCS(=O)(=O)c2nc(C)cs2)C1c1cccc([N+](=O)[O-])c1` (centres unmarked) [listing 1 of 2 here], in experiment [2] (setting [9]), the IC50 was 5.57 nM.
As to `COC(=O)C1=C(C)NC(C)=C(C(=O)OCCCCCCS(=O)(=O)c2nc(C)cs2)C1c1cccc([N+](=O)[O-])c1` (centres unmarked) [listing 2 of 2 here], in experiment [3], the heart contractile force entry is given as “increase the heart contractile force” and the heart rate result is on record as “without changing the heart rate”.
Take `COC(=O)C1=C(C)NC(C)=C(C(=O)OCCCCCCCc2cc(C)no2)C1c1cccc([N+](=O)[O-])c1` (centres unmarked): the angiotensin inhibitory activity result in experiment [4] is given as “very strong”. Moreover, in experiment [5], the LTD₄ antagonistic activity result was “very strong”. In addition, the anti-ulcer stressic activity result in experiment [6] is on record as “very strong”.
Take `COC(=O)C1=C(C)NC(C)=C(C(=O)OCCCCCCCc2nc(C)cs2)C1c1cccc(C(F)(F)F)c1` (centres unmarked): the anti-inflammatory activity result in experiment [1] is reported as “very strong”.
For `COC(=O)C1=C(C)NC(C)=C(C(=O)OCCCCCCCc2nc(C)cs2)C1c1cccc(Cl)c1` (centres unmarked), the angiotensin inhibitory activity result in experiment [4] was “very strong”. Further, in experiment [5], the LTD₄ antagonistic activity result is “very strong”. Further, in experiment [6], the anti-ulcer stressic activity entry was “very strong”.
Regarding `COC(=O)C1=C(C)NC(C)=C(C(=O)OCCCCCCCc2nc(C)cs2)C1c1cccc([N+](=O)[O-])c1` (centres unmarked), the IC50 in experiment [2] (setting [9]) was found to be 3.25 ± 0.33 nM. For the same molecule, in experiment [2], the “relative potency compared with Nifedipine” value amounted to 4.3. Moreover, in experiment [3], the heart contractile force result is “increase the heart contractile force” and the heart rate entry is given as “without changing the heart rate”.
`COC(=O)C1=C(C)NC(C)=C(C(=O)OCCCCCCS(=O)(=O)c2nc(C)cs2)C1c1cccc([N+](=O)[O-])c1` (centres unmarked) [3-[6-(4-methylthiazol-2-yl)sulfonylhexyloxycarbonyl]-5-metho]: the “relative potency compared with Nifedipine” value in experiment [2] amounted to 2.5. For the same molecule, the “positive ionotropic effect on the heart muscle” value (from here on “positive ionotropic effect”) in experiment [3] is on record as “about 22%”.
For the molecule `C[C@H](CS)C(=O)N1CCC[C@H]1C(=O)O` [Captopril, reference compound], in experiment [4] (Concentration 0.05 µg/ml), the “Percent Inhibition” value is listed as 69%.
Take `COC(=O)C1=C(C)NC(C)=C(C(=O)OCCCCCCCc2cc(C)no2)C1c1cccc([N+](=O)[O-])c1` (centres unmarked) [Compound 1, 3-[7-(3-methylisoxazol-5-yl)heptyloxycarbonyl]-5-methoxycarbonyl-2,6-dimethyl-4-(3-nitrophenyl)-1,4-dihydropyridine]: the IC50 in experiment [2] (setting [10]) worked out at 3.84 nM. For the same molecule, the results for the “Percent Inhibition” value in experiment [4] (Concentration 0.01 µg/ml) and in experiment [4] (concentration of 0.0025 µg) were 93% and 60%, respectively.
Take `COC(=O)C1=C(C)NC(C)=C(C(=O)OCCCCCCCc2cc(C)no2)C1c1cccc(C(F)(F)F)c1` (centres unmarked) [Compound 3, 3-[7-(3-mehylisoxazol-5-yl)heptyloxycarbonyl]-5-methoxycarbonyl-2,6-dimethyl-4-(3-trifluoromethylphenyl)-1,4-dihydropyridine]: the IC50 in experiment [2] (exponent (x 10⁻⁹), carbachol 5x10⁻⁷M, tonic component, triplicate, read-out: calcium channel antagonist act., inhib. act. on contractile Response to CD ID₅₀) was determined as 5.13 nM.
For `COC(=O)C1=C(C)NC(C)=C(C(=O)OCCCCCCn2nc(C)cc2C)C1c1cccc([N+](=O)[O-])c1` (centres unmarked) [Compound 5, 3-[6-(3,5-dimethylpyrazol-1-yl)hexyloxycarbonyl]-5-methoxycarbonyl-2,6-dimethyl-4-(3-nitrophenyl)-1,4-dihydropyridine], the IC50 in experiment [2] (setting [10]) was determined as 6.24 nM. Moreover, the “Percent Inhibition” value is 95% in experiment [4] (Concentration 0.01 µg/ml) and 58% in experiment [4] (concentration of 0.001 µg).
Turning to `COC(=O)C1=C(C)NC(C)=C(C(=O)OCCCCCCCc2nc(C)cs2)C1c1cccc([N+](=O)[O-])c1` (centres unmarked) [Compound 11, 3-[7-(4-methylthiazol-2-yl)heptyloxycarbonyl]-5-methoxycarbonyl-2,6-dimethyl-4-(3-nitrophenyl)-1,4-dihydropyridine], the IC50 in experiment [2] (setting [10]) came out at 3.25 nM. For the same molecule, the “positive ionotropic effect” value in experiment [3] is “about 12%”. Also, in experiment [7], the “drop in blood pressure” value is reported as 19%, the heart rate result was “without changing the heart rate” and the “period of drop in blood pressure” value is 9 h.
As to `COC(=O)C1=C(C)NC(C)=C(C(=O)OCCCCCCCc2nc(C)cs2)C1c1cccc(C(F)(F)F)c1` (centres unmarked) [Compound 13, 3-[7-(4-methylthiazol-2-yl)heptyloxycarbonyl]-5-methoxycarbonyl-2,6-dimethyl-4-(3-trifluoromethylphenyl)-1,4-dihydropyridine], the “Percent Inhibition” value in experiment [4] (Concentration 0.1 µg/ml) is 80%.
For the molecule `COC(=O)C1=C(C)NC(C)=C(C(=O)OCCCCCCCc2nc(C)cs2)C1c1cccc(Cl)c1` (centres unmarked) [Compound 15, 3-[7-(4-methylthiazol-2-yl)heptyloxycarbonyl]-5-methoxycarbonyl-2,6-dimethyl-4-(3-chlorophenyl)-1,4-dihydropyridine], in experiment [2] (setting [10]), the IC50 came to 6.25 nM. Further, the “Percent Inhibition” value in experiment [4] (Concentration 0.1 µg/ml) is 64%.
Turning to `COC(=O)C1=C(C)NC(C)=C(C(=O)OCCCCCCCc2nc(C)cs2)C1c1cccc(Cl)c1Cl` (centres unmarked) [Compound 17, 3-[7-(4-methylthiazol-2-yl)heptyloxycarbonyl]-5-methoxycarbonyl-2,6-dimethyl-4-(2,3-dichlorophenyl)-1,4-dihydropyridine], the IC50 in experiment [2] (Cavia porcellus, exponent printed in neighbouring spread cell (x 10⁻⁸), carbachol 5x10⁻⁷M, tonic component, triplicate, read-out: calcium channel antagonist act., inhib. act. on contractile Response to CD ID₅₀) is 48.1 nM.
Take `COC(=O)C1=C(C)NC(C)=C(C(=O)OCCCCCCSc2nc(C)cs2)C1c1cccc([N+](=O)[O-])c1` (centres unmarked) [Compound 18, 3-[6-(4-methylthiazol-2-yl)thiohexyloxycarbonyl]-5-methoxycarbonyl-2,6-dimethyl-4-(3-nitrophenyl)-1,4-dihydropyridine]: the IC50 in experiment [2] (setting [10]) came to 5.48 nM.
Consider `COC(=O)C1=C(C)NC(C)=C(C(=O)OCCCCCCS(=O)(=O)c2nc(C)cs2)C1c1cccc([N+](=O)[O-])c1` (centres unmarked) [Compound 19, 3-[6-(4-methylthiazol-2-yl)sulfonylhexyloxycarbonyl]-5-methoxycarbonyl-2,6-dimethyl-4-(3-nitrophenyl)-1,4-dihydropyridine], for which the IC50 in experiment [2] (setting [10]) amounted to 5.81 nM. For the same molecule, the “positive ionotropic effect” value in experiment [3] is 25%.
With `CCOC(=O)C1=C(C)NC(C)=C(C(=O)OC)C1c1cccc(Cl)c1Cl` (centres unmarked) [Felodipine, 3-ethoxycarbonyl-5-methoxycarbonyl-4-(2,3-dichlorophenyl)-2,6-dimethyl-1,4-dihydropyridine], in experiment [8], the “effect on the heart” value is “no effect on the heart”.

Source of the values: EP0379351A1, “1,4-Dihydropyridine derivatives” (SYNPHAR LABORATORIES INC., priority 1989, dated 1990).
